The values below come from US8008494B2, “Soluble amide and ester pyrazinoylguanidine sodium channel blockers” (Parion Sciences, Inc., priority 2004, dated 2011).

The term melting point denotes the temperature of the solid-liquid transition. As a reminder, the solubility is the dissolved amount per volume that the medium holds. The term IC50 denotes the concentration that inhibits the measured activity by half.

The nature of data set [1]: Solubility of compounds in sodium chloride solution. As to conditions: saline or isotonic, thermodynamic from solid. The class given is physicochemical. The protocol:
Compound solubility was measured in water, 0.12 or 0.9% sodium chloride solution at ambient temperature for up to 10 days. Using a UV/Visable Spectrophotometer and applying Beer's Law with the calculated extinction coeffecient of amiloride (18.6 mM, absorbance values at 362 nm taken from D. Mazzo 1986) the free base concentration in solution was calculated at specified time points. All samples were stored for the duration of the experiment in a single/closure system consisting of glass vials with a stopper-top closure. The vials were maintained at ambient temperature, in the dark, and in the upright position. Compound stability was measured using reverse phase high performance liquid chromatography on the final filtered pulled sample (day 10).
Table 2 gives the solubility in saline of selected amide bis methane sulfonic acid salts and compares them to the mono addition methane sulfonic acid salt of PSA 9714.

The target in data set [2] is T1, Epithelial Sodium Channel (ENaC) (Canis lupus familiaris, UniProt A0A8I3MKE6+A0A8I3Q679+Q95165).
T1 construct: endogenous in cells; host or cells: primary canine bronchial epithelial cells from freshly excised airways, cultured at air-liquid interface and mounted in Ussing chambers
T1 sequence (A0A8I3Q679 1-649): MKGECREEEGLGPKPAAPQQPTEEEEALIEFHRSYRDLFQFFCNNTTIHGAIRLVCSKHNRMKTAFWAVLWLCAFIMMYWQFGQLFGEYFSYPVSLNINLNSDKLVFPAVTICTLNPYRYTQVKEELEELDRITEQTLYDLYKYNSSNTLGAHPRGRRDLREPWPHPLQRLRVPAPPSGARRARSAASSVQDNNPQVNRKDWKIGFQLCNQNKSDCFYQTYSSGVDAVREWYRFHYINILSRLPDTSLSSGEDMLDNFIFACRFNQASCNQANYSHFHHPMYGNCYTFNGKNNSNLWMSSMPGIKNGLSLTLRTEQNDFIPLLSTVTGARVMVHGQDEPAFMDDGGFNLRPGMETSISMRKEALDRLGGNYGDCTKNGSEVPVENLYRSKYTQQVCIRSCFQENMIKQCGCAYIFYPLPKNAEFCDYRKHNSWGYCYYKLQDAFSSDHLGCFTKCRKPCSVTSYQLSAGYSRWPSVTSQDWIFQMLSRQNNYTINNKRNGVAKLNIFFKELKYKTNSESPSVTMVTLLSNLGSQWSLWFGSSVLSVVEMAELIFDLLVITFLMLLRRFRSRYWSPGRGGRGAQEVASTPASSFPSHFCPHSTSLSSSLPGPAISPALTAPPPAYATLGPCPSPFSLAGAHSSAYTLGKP
T1 sequence (Q95165 1-641): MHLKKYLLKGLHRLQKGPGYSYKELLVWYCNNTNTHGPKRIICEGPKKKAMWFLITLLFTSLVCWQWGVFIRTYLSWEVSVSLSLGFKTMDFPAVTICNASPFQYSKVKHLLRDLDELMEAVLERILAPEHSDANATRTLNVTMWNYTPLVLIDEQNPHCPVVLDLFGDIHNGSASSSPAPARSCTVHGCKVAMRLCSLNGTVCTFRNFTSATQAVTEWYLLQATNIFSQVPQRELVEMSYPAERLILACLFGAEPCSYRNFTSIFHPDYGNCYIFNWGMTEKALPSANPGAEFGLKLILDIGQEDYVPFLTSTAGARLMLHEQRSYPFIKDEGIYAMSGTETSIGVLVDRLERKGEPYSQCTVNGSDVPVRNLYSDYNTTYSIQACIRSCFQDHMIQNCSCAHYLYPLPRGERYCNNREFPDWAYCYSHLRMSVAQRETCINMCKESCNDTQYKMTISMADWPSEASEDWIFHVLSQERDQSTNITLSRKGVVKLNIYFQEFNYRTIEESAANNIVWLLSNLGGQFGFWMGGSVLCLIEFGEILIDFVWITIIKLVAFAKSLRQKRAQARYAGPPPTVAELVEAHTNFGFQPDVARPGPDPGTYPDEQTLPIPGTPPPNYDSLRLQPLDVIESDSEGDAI
T1 sequence (A0A8I3MKE6 1-646): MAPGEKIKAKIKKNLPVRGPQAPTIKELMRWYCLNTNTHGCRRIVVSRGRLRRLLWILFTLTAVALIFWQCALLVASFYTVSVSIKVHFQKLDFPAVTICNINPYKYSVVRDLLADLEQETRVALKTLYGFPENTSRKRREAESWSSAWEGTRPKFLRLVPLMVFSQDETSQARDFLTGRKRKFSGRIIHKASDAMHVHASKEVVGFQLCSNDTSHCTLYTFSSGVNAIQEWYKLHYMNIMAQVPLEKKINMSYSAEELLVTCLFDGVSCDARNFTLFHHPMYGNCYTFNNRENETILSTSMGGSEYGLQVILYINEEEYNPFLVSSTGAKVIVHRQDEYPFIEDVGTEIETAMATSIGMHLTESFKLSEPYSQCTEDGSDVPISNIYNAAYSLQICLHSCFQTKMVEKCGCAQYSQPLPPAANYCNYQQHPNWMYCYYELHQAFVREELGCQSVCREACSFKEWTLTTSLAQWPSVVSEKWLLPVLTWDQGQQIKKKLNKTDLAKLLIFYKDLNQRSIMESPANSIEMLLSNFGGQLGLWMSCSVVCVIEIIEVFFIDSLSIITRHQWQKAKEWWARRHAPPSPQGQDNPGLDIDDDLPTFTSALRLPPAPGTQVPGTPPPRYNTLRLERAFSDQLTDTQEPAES
Kind of data set: Sodium channel (ENaC) blocking activity, short circuit current in airway epithelial monolayers in Ussing chambers. It is filed as cell-based. The settings on record: canine bronchial epithelium; for Fold Amiloride (PSA4022 = 100): relative potency, PSA4022 = 100, using IC50 from PSA4022 in same run. The protocol:
One assay used to assess mechanism of action and/or potency of the compounds of the present invention involves the determination of lumenal drug inhibition of airway epithelial sodium currents measured under short circuit current (ISC) using airway epithelial monolayers mounted in Ussing chambers. Cells obtained from freshly excised human, dog or sheep airways are seeded onto porous 0.4 micron Snapwell™ Inserts (CoStar), cultured at air-liquid interface (ALI) conditions in hormonally defined media, and assayed for sodium transport activity (ISC in μA/cm^2) while bathed in Krebs Bicarbonate Ringer (KBR) in Ussing chambers. All test drug additions are to the lumenal bath with half-log dose addition protocols (from 1×10^−11 M to 3×10^−5 M), and the cumulative change in ISC (inhibition) recorded. All drugs are prepared in dimethyl sulfoxide as stock solutions at a concentration of 1×10^−2 M and stored at −20° C. Six preparations are typically run in parallel; one preparation per run incorporates a positive control. All data from the voltage clamps are collected via a computer interface and analyzed off-line.
Dose-effect relationships for all compounds are considered and analyzed by the Prism 3.0 program. EC50 values, maximal effective concentrations are calculated and compared to positive controls.
Utilizing the tests set forth above, Table 3 summaries the ENaC blocking ability of some of the amides of this invention when assayed in canine bronchial epithelium.
Utilizing the tests set forth above, Table 4 summaries the ENaC blocking ability of some of the Esters of this invention when assayed in canine bronchial epithelium.

Setting [3] is: 0.12% sodium chloride solution, 0.12% NaCl solution, methanesulfonic acid salts, ambient temperature, read-out: S1 = Solubility in 0.12% NaCl Solution.
Setting [4] is: 0.9% sodium chloride solution (normal saline), 0.9% NaCl solution (normal saline), methanesulfonic acid salts, ambient temperature, read-out: S2 = Solubility in 0.9% NaCl Solution (normal Saline).
Setting [5] is: Table 3, read-out: IC50 (nM), Epithelial Sodium Channel Blocking Activity of Selected Amides.
Where [6] appears, read: Table 4, read-out: IC50 (nM), Epithelial Sodium Channel Blocking Activity of Selected Esters.

Molecules are shown by their SMILES. Counter-ions that a name gives are not always drawn. Like-named read-outs stand apart in the source and are kept apart here. Where only a bound is given, the exact number is not on record here.

Compound `CN(C)CCCNC(=O)COc1ccc(CCCCNC(=N)NC(=O)c2nc(Cl)c(N)nc2N)cc1` (as salt: methanesulfonate) [PSA 24304, 2-(4-{4-[N′-(3,5-diamino-6-chloropyrazine-2-carbonyl)guanidino]-butyl}phenoxy)-N-(3-dimethylaminopropyl)acetamide dimethanesulfonate] gave a melting point of 187 to 190 °C.
For the compound `CS(=O)(=O)O.CS(=O)(=O)O.N=C(NCCCCc1ccc(C(=O)N2CCNCC2)cc1)NC(=O)c1nc(Cl)c(N)nc1N` [PSA23607, N-(3,5-Diamino-6-chloropyrazine-2-carbonyl)-N′-{4-[4-(piperazine-1-carbonyl)phenyl]butyl}guanidine bis-methanesulfonate], in data set [1] (0.12% sodium chloride solution, 0.12% saline solution, read-out: solubility in 0.12% saline solution), the solubility is over 5000 µg/mL.
`N=C(NCCCCc1ccc(OCC(N)=O)cc1)NC(=O)c1nc(Cl)c(N)nc1N` [PSA 9714, reference compound]: the solubility in data set [1] (setting [3]) and in data set [1] (setting [4]) was under 100 µg/mL throughout. Also, in data set [2] (Table 3), the “Fold Amiloride (PSA4022 = 100)” value was determined as 62.
On to `N=C(NCCCCc1ccc(OCC(=O)N2CCNCC2)cc1)NC(=O)c1nc(Cl)c(N)nc1N` [PSA 19913], for which the melting point fell in the range of 72 to 74 °C. Further, the solubility in data set [1] (setting [3]) is over 5000 µg/mL. Also, in data set [2] (setting [5]), the IC50 turned out to be 9 ± 1 nM. Further, in data set [2] (Table 3), the “Fold Amiloride (PSA4022 = 100)” value was found to be 98.
On the same counts, the results for `CN(C)CCNC(=O)COc1ccc(CCCCNC(=N)NC(=O)c2nc(Cl)c(N)nc2N)cc1` [PSA 23185a] are 97 to 99 °C, over 5000 µg/mL, 14 ± 9 nM and 59.
`N=C(NCCCCc1ccc(OCC(=O)NCCN(CCO)CCO)cc1)NC(=O)c1nc(Cl)c(N)nc1N` [PSA 23450] returned a melting point of 87 to 89 °C. Moreover, the solubility in data set [1] (setting [3]) was over 5000 µg/mL. In data set [1] (setting [4]), the solubility was over 5000 µg/mL. The IC50 in data set [2] (setting [5]) amounted to 18 nM. The “Fold Amiloride (PSA4022 = 100)” value in data set [2] (Table 3) is 38.
Take `N=C(NCCCCc1ccc(OCC(=O)NCCN)cc1)NC(=O)c1nc(Cl)c(N)nc1N` [PSA 23778]: the melting point was 105 to 107 °C (dec.). In addition, the solubility in data set [1] (setting [3]) is over 5000 µg/mL. Moreover, the “Fold Amiloride (PSA4022 = 100)” value in data set [2] (Table 3) is 146.
For `CN(C)CCCNC(=O)COc1ccc(CCCCNC(=N)NC(=O)c2nc(Cl)c(N)nc2N)cc1` [PSA 24304, 2-(4-{4-[N′-(3,5-diamino-6-chloropyrazine-2-carbonyl)guanidino]-butyl}phenoxy)-N-(3-dimethylaminopropyl)acetamide dimethanesulfonate], the solubility in data set [1] (setting [3]) was over 5000 µg/mL. The IC50 in data set [2] (setting [5]) was 4 ± 2 nM. Moreover, in data set [2] (Table 3), the “Fold Amiloride (PSA4022 = 100)” value worked out at 173.
Regarding `CN(C)CCCCNC(=O)COc1ccc(CCCCNC(=N)NC(=O)c2nc(Cl)c(N)nc2N)cc1` [PSA 24305], the melting point lay within 188 to 190 °C. Also, the solubility in data set [1] (setting [3]) is over 5000 µg/mL. Moreover, the solubility in data set [1] (setting [4]) was over 5000 µg/mL. Moreover, the IC50 in data set [2] (setting [5]) is 6 ± 5 nM. Besides, in data set [2] (Table 3), the “Fold Amiloride (PSA4022 = 100)” value turned out to be 152.
`CC(C)(C)OC(=O)NCCOC(=O)COc1ccc(CCCCNC(N)=NC(=O)c2nc(Cl)c(N)nc2N)cc1` [PSA 25309, (4-{4-[N′-(3,5-Diamino-6-chloropyrazine-2-carbonyl)guanidino]butyl}phenoxy)acetic acid 2-tert-butoxycarbonylaminoethyl ester]: the melting point lay within 80 to 82 °C. For the same compound, the IC50 in data set [2] (setting [6]) was found to be 4 nM. Also, the “Fold Amiloride (PSA4022 = 100)” value in data set [2] (Table 4) is given as 119.
Consider `N=C(NCCCCc1ccc(OCC(=O)OCCN2CCCCC2)cc1)NC(=O)c1nc(Cl)c(N)nc1N` [PSA 25453, (4-{4-[N′-(3,5-diamino-6-chloropyrazine-2-carbonyl)guanidino]butyl}-phenoxy)acetic acid 2-piperidin-1-yl-ethyl ester], for which the IC50 in data set [2] (setting [6]) worked out at 19 ± 16 nM. In data set [2] (Table 4), the “Fold Amiloride (PSA4022 = 100)” value was determined as 38.
On the same counts, the results for `N=C(NCCCCc1ccc(OCC(=O)OCCN)cc1)NC(=O)c1nc(Cl)c(N)nc1N` [PSA 25454, (4-{4-[N′-(3,5-diamino-6-chloropyrazine-2-carbonyl)guanidino]butyl}-phenoxy)acetic acid 2-aminoethyl ester dihydrochloride] are 12 ± 2 nM and 44.
On the same counts, the results for `N=C(NCCCCc1ccc(OCC(=O)OCC2CCNCC2)cc1)NC(=O)c1nc(Cl)c(N)nc1N` [PSA 25720, (4-{4-[N′-(3,5-diamino-6-chloropyrazine-2-carbonyl)guanidino]butyl}-phenoxy)acetic acid piperidin-4-yl-methyl ester dihydrochloride] are 3 nM and 189.
